The test system of this test is PIK3CA-mutant breast cancer. Kind of test: clinical trial NCT01870505, PIK3CA-mutant breast cancer. As to conditions: with an aromatase inhibitor. The test is classed as in vivo, patients. The source says:
We then explored whether SGK1 and pNDRG1 expression correlate with clinical outcome to PI3Kα inhibition by analyzing PIK3CA-mutant breast cancer samples from 18 patients treated with BYL719 in combination with an aromatase inhibitor (NCT01870505). Three of these tumors expressed high levels of SGK1 mRNA while the remaining 15 had medium/low levels of SGK1 mRNA. […] This was in agreement with the longer time to disease progression of this subset of patients when compared to the SGK1-high/pNDRG1-positive cohort (FIG. 4H, I).
The MSKCC Institutional Review Board approved the study. Pre-treatment FFPE blocks from patients treated with the PI3Kα inhibitor BYL719 enrolled in the clinical trial NCT01870505 conducted at MSKCC were used for IHC. Informed consent was obtained from all subjects.
For the study of patients treated with the PI3Kα inhibitor BYL719, pre-treatment biopsy FFPE blocks from patients enrolled in the clinical trial NCT01870505 conducted at MSKCC were used for IHC as described above. For the selection of the patients, PIK3CA and other tumor genomic drivers were analyzed using MSK-IMPACT (Cheng et al., 2015). […] SGK1 mRNA levels were determined using next-generation sequencing (NGS) and the expression results were presented as raw Reads Per Kilobase of transcript per Million mapped reads (RPKM). Mean and standard deviation (SD) was calculated across all the samples with available NGS data and overexpression of SGK1 was called for the samples with mRNA levels greater than mean+1SD. For 6 samples, RNA quality and quantity was not optimal for NGS. In these cases, SGK1 mRNA levels were determined using RT-qPCR as described above. RNA from low expressing (T47D) and high expressing (HCC1954) cell lines were used as positive control and absolute mRNA levels were quantified.

For the molecule `Cc1nc(NC(=O)N2CCC[C@H]2C(N)=O)sc1-c1ccnc(C(C)(C)C(F)(F)F)c1` [BYL719], where the note is “patients with pNDRG1-negative tumors”, the “clinical response by RECIST” value is “three had partial responses and eight had stable disease”. Moreover, the clinical response entry is recorded as “did not respond to therapy” (three patients, tumors with high SGK1, pNDRG1 positive) and “rapidly progressed” (two patients, medium/low SGK1, pNDRG1 positive).

Values taken from patent US11696924B2, “Combination therapy using PDK1 and PI3K inhibitors” (MEMORIAL SLOAN-KETTERING CANCER CENTER, priority 2015, dated 2023).
